Like-named read-outs stand apart in the source and are kept apart here.

Data on 19 compounds can be found in patent US11807649B2, “Fused tetracyclic quinazoline derivatives as inhibitors of ErbB2” (EnLiven Therapeutics, Inc., priority 2021, dated 2023).

In this assay the test system is Ba/F3 ERBB2 YVMA. The assay is described as follows: Cell viability assay (CellTiter Glo), Ba/F3 cells engineered to express ERBB2 YVMA. It counts as cell-based. As to conditions: Mus musculus, BaF3, 72 h. The procedure: Cells were treated with compounds, and cell viability was measured as a metric of kinase inhibition.
BT-474, A431, MDA-MB-175VII, NCI-H1781, MCF7, and Ba/F3 cell lines were tested. The Ba/F3 cell line is IL-3-dependent mouse cell line derived from the C3H mouse strain. Ba/F3 cell lines were engineered to express human ERBB2 or EGFR kinases, rendering the cells IL-3 independent. The lines were generated via retroviral transduction utilizing a Moloney murine leukemia virus (MMLV) promoter, and constructs are stably integrated into the cell genome. The sequences of the ERBB2 and EGFR genes used were NCBI Reference Sequences NM 004448.3 and NM 005228.3, respectively.
BT-474, A431, MDA-MB-175VII, NCI-H1781 and MCF7 cells were grown in the appropriate growth medium as described in Table B2 below, and harvested at 50-80% confluence. BT-474, A431, MDA-MB-175VII, NCI-H1781 and MCF7 cells were counted and seeded at 2,000 or 1,500 cells per well in 384-well tissue culture plates (see Table B2). Similarly, Ba/F3 cell lines engineered to express EGFR, ERBB2, or ERBB2 mutants were grown, harvested, counted and seeded at 3000 cells per well in 96-well plates. A subset of wells contained media only (low control, “LC”).
Table B1 provides the growth media and number of cells seeded per well for the each cell line.
Compounds were dissolved in DMSO and serially diluted. Serially-diluted compound or a DMSO only control (high control, “HC”) was added to the plated cells in each well. Compounds were tested at concentrations of about 10 μM to 0.51 nM, using three-fold dilutions. The final proportion of DMSO never exceeded 0.1%.
Plates were placed in a 37° C., 5% CO2 incubator for 72 hours. Plates were then removed from the incubator and equilibrated for 15 minutes at room temperature. […] of CellTiter Glo reagent (Promega) was added to measure the relative level of metabolically active cells by quantifying intracellular ATP concentrations. Plates were incubated for 30 minutes at room temperature, and luminescence was measured. Percent viability was normalized to a vehicle control only using the following formula: % viability=100×(Lumsample−LumLC)/(LumHC−LumLC). Graphical curves were fitted using a nonlinear regression model with a sigmoidal dose response.
On the technique in general: Cellular ATP, detected with luciferase, serves as a proxy for viable cell number.

The mark [1] stands for this setting: Ba/F3 cells expressing human ERBB2 YVMA mutant, 72 hours, cell viability, CellTiter Glo, read-out: Ba/F3 ERBB2 YVMA, IC50.
Where [2] appears, read: read-out: Ba/F3 ERBB2 YVMA, IC50, nM.

For `CN(C)C/C=C/C(=O)N1CCN2C[C@H]1COc1cc3ncnc(Nc4ccc(Oc5ccn6ncnc6c5)c(Cl)c4)c3nc12` [Compound 32, (E)-1-((10S)-4-((4-([1,2,4]triazolo[1,5-a]pyridin-7-yloxy)-3-chlorophenyl)amino)-7,8,10,11-tetrahydro-9H-6,10-methanopyrimido[4′,5′:5,6]pyrido[3,2-b][1,4,7]oxadiazonin-9-yl)-4-(dimethylamino)but-2-en-1-one], under setting [1], the IC50 is 4.54 nM. For the compound `Cc1cc(Nc2ncnc3cc4c(nc23)N2CCN(C(=O)/C=C/CN(C)C)[C@H](CO4)C2)ccc1Oc1ccn2ccnc2c1` [Compound 34, (E)-4-(dimethylamino)-1-((10S)-4-((4-(imidazo[1,2-a]pyridin-7-yloxy)-3-methylphenyl)amino)-7,8,10,11-tetrahydro-9H-6,10-methanopyrimido[4′,5′:5,6]pyrido[3,2-b][1,4,7]oxadiazonin-9-yl)but-2-en-1-one], the IC50 under setting [1] came to 7.18 nM. As for `Cc1c(Oc2ccn3ncnc3c2)ccc(Nc2ncnc3cc4c(nc23)N2CCN(C(=O)/C=C/CN(C)C)[C@H](CO4)C2)c1F` [Compound 35, (E)-1-((10S)-4-((4-([1,2,4]triazolo[1,5-a]pyridin-7-yloxy)-2-fluoro-3-methylphenyl)amino)-7,8,10,11-tetrahydro-9H-6,10-methanopyrimido[4′,5′:5,6]pyrido[3,2-b][1,4,7]oxadiazonin-9-yl)-4-(dimethylamino)but-2-en-1-one], under setting [1], the IC50 stood at 1.29 nM. As for `CN(C)C/C=C/C(=O)N1CCN2C[C@H]1COc1cc3ncnc(Nc4ccc(Oc5ccn6ncnc6c5)c(F)c4)c3nc12` [Compound 39, (E)-1-((10S)-4-((4-([1,2,4]triazolo[1,5-a]pyridin-7-yloxy)-3-fluorophenyl)amino)-7,8,10,11-tetrahydro-9H-6,10-methanopyrimido[4′,5′:5,6]pyrido[3,2-b][1,4,7]oxadiazonin-9-yl)-4-(dimethylamino)but-2-en-1-one], under setting [1], the IC50 stood at 5.54 nM.

For `Cc1cc(Nc2ncnc3cc4c(c(F)c23)N2CCN(C(=O)/C=C/CN(C)C)[C@H](CO4)C2)ccc1Oc1ccn2ncnc2c1` [Compound 40, (E)-1-((10S)-4-((4-([1,2,4]triazolo[1,5-a]pyridin-7-yloxy)-3-methylphenyl)amino)-5-fluoro-7,8,10,11-tetrahydro-9H-6,10-methano[1,4,7]oxadiazonino[3,2-g]quinazolin-9-yl)-4-(dimethylamino)but-2-en-1-one], the IC50 under setting [1] came out at 29.4 nM. The same measure, in the same setting: to `Cc1cc(Nc2ncnc3cc4c(nc23)N2CCN(C(=O)/C=C/[C@H]3CCCN3C)[C@H](CO4)C2)c(F)cc1Oc1ccn2ncnc2c1` [Compound 41, (E)-1-((10S)-4-((4-([1,2,4]triazolo[1,5-a]pyridin-7-yloxy)-2-fluoro-5-methylphenyl)amino)-7,8,10,11-tetrahydro-9H-6,10-methanopyrimido[4′,5′:5,6]pyrido[3,2-b][1,4,7]oxadiazonin-9-yl)-34-((R)-1-methylpyrrolidin-2-yl)prop-2-en-1-one] belongs 8.67 nM. As to `CN(C)C/C=C/C(=O)N1CCN2C[C@H]1COc1cc3ncnc(Nc4ccc(Oc5ccn6ncnc6c5)cc4F)c3nc12` [Compound 42, (E)-1-((10S)-4-((4-([1,2,4]triazolo[1,5-a]pyridin-7-yloxy)-2-fluorophenyl)amino)-7,8,10,11-tetrahydro-9H-6,10-methanopyrimido[4′,5′:5,6]pyrido[3,2-b][1,4,7]oxadiazonin-9-yl)-4-(dimethylamino)but-2-en-1-one], the IC50 under setting [1] was determined as 10.3 nM. For the compound `CN(C)C/C=C/C(=O)N1CCN2C[C@H]1COc1cc3ncnc(Nc4cc(Cl)c(Oc5ccn6ncnc6c5)cc4F)c3nc12` [Compound 43, (E)-1-((10S)-4-((4-([1,2,4]triazolo[1,5-a]pyridin-7-yloxy)-5-chloro-2-fluorophenyl)amino)-7,8,10,11-tetrahydro-9H-6,10-methanopyrimido[4′,5′:5,6]pyrido[3,2-b][1,4,7]oxadiazonin-9-yl)-4-(dimethylamino)but-2-en-1-one], under setting [1], the IC50 was 4.65 nM. As for `Cc1cc(Nc2ncnc3cc4c(nc23)N2CCN(C(=O)/C=C/CN(C)C)[C@H](CO4)C2)c(F)cc1Oc1cncc(F)c1` [Compound 44], under setting [1], the IC50 worked out at 9.18 nM. Regarding `Cc1cc(Nc2ncnc3cc4c(nc23)N2CCN(C(=O)/C=C/C3CN(C)C3)[C@H](CO4)C2)ccc1Oc1ccn2ncnc2c1` [Compound 45, (E)-1-((10S)-4-((4-([1,2,4]triazolo[1,5-a]pyridin-7-yloxy)-3-methylphenyl)amino)-7,8,10,11-tetrahydro-9H-6,10-methanopyrimido[4′,5′:5,6]pyrido[3,2-b][1,4,7]oxadiazonin-9-yl)-3-(1-methylazetidin-3-yl)prop-2-en-1-one], the IC50 under setting [1] was 46.7 nM. On the same count and under the same terms, in the case of `Cc1cc(Nc2ncnc3cc4c(nc23)N2CCN(C(=O)/C=C/[C@H](C)N(C)C)[C@H](CO4)C2)c(F)cc1Oc1ccn2ncnc2c1` [Compound 47, (4S,E)-1-((10S)-4-((4-([1,2,4]triazolo[1,5-a]pyridin-7-yloxy)-2-fluoro-5-methylphenyl)amino)-7,8,10,11-tetrahydro-9H-6,10-methanopyrimido[4′,5′:5,6]pyrido[3,2-b][1,4,7]oxadiazonin-9-yl)-4-(dimethylamino)pent-2-en-1-one] it was 13 nM. As to `CN(C)C/C=C/C(=O)N1CCN2C[C@H]1COc1cc3ncnc(Nc4cc(F)c(Oc5ccn6ncnc6c5)cc4F)c3nc12` [Compound 48, (E)-1-((10S)-4-((4-([1,2,4]triazolo[1,5-a]pyridin-7-yloxy)-2,5-difluorophenyl)amino)-7,8,10,11-tetrahydro-9H-6,10-methanopyrimido[4′,5′:5,6]pyrido[3,2-b][1,4,7]oxadiazonin-9-yl)-4-(dimethylamino)but-2-en-1-one], the IC50 under setting [2] turned out to be 4.85 nM. Turning to `CNC/C=C/C(=O)N1CCN2C[C@H]1COc1cc3ncnc(Nc4cc(C)c(Oc5ccn6ncnc6c5)cc4F)c3nc12` [Compound 49, (E)-1-((10S)-4-((4-([1,2,4]triazolo[1,5-a]pyridin-7-yloxy)-2-fluoro-5-methylphenyl)amino)-7,8,10,11-tetrahydro-9H-6,10-methanopyrimido[4′,5′:5,6]pyrido[3,2-b][1,4,7]oxadiazonin-9-yl)-4-(methylamino)but-2-en-1-one], under setting [1], the IC50 turned out to be 37.6 nM.

For the compound `Cc1cc(Nc2ncnc3cc4c(nc23)N2CCN(C(=O)/C=C/[C@@H](C)N(C)C)[C@H](CO4)C2)c(F)cc1Oc1ccn2ncnc2c1` [Compound 50, (4R,E)-1-((10S)-4-((4-([1,2,4]triazolo[1,5-a]pyridin-7-yloxy)-2-fluoro-5-methylphenyl)amino)-7,8,10,11-tetrahydro-9H-6,10-methanopyrimido[4′,5′:5,6]pyrido[3,2-b][1,4,7]oxadiazonin-9-yl)-4-(dimethylamino)pent-2-en-1-one], the IC50 under setting [1] is 62.6 nM.

In the case of `Cc1cc(Nc2ncnc3cc4c(nc23)N2CCN(C(=O)/C=C/CN(C)C)[C@H](CO4)C2)ccc1Oc1cncc(F)c1` [Compound 51], the IC50 under setting [1] came out at 3.37 nM. As to `Cc1cc(Nc2ncnc3cc4c(nc23)N2CCN(C(=O)/C=C/CN(C)C)C(CCO4)C2)ccc1Oc1ccn2ncnc2c1` (stereo not shown) [Compound 52, (E)-1-(4-((4-([1,2,4]triazolo[1,5-a]pyridin-7-yloxy)-3-methylphenyl)amino)-7,8,11,12-tetrahydro-6,10-methanopyrimido[4′,5′:5,6]pyrido[3,2-b][1,4,7]oxadiazecin-9(10H)-yl)-4-(dimethylamino)but-2-en-1-one], the IC50 under setting [1] was found to be 109 nM.

With `Cc1cc(Nc2ncnc3cc4c(nc23)N2CCN(C(=O)/C=C/C3(F)CN(C)C3)[C@H](CO4)C2)ccc1Oc1ccn2ncnc2c1` [Compound 53, (E)-1-((10S)-4-((4-([1,2,4]triazolo[1,5-a]pyridin-7-yloxy)-3-methylphenyl)amino)-7,8,10,11-tetrahydro-9H-6,10-methanopyrimido[4′,5′:5,6]pyrido[3,2-b][1,4,7]oxadiazonin-9-yl)-3-(3-fluoro-1-methylazetidin-3-yl)prop-2-en-1-one], the IC50 under setting [1] is 117 nM. Consider `Cc1cc(Nc2ncnc3cc4c(nc23)N2CCN(C(=O)/C=C/CN(C)C)CC(CO4)C2)ccc1Oc1ccn2ncnc2c1` (stereo not shown) [Compound 57, (E)-1-(4-((4-([1,2,4]triazolo[1,5-a]pyridin-7-yloxy)-3-methylphenyl)amino)-7,8,11,12-tetrahydro-6,11-methanopyrimido[4′,5′:5,6]pyrido[3,2-b][1,4,7]oxadiazecin-9(10H)-yl)-4-(dimethylamino)but-2-en-1-one], for which, under setting [1], the IC50 turned out to be 173 nM. As to `CCOc1cc2ncc(C#N)c(Nc3ccc(OCc4ccccn4)c(Cl)c3)c2cc1NC(=O)/C=C/CN(C)C` [Neratinib, neratinib, reference compound], the IC50 under setting [2] turned out to be 3.5 nM.
